According to patent US20250214991A1 (Oncopia Therapeutics, Inc. d/b/a/ SK Life Science Labs, priority 2022, published 2025):

Tests used:
IKZF2 [1] = biological target: T1, IKZF2 (Homo sapiens (Human), UniProt Q96SW2+Q9UKS7); test: In vitro IKZF2 FACS Assay in Jurkat cells; type: cell-based; conditions: 24 hrs; for DC50: half maximal degradation concentration; for Dmax: maximal degradation percentage
Description: In vitro IKZF2 FACS Assay
DC50, A: <1 nM; B: 1-10 nM; C: 10-100 nM; D: 100-1000 nM; E: >1000 nM. Dmax, A: >80%; B: 60-80%; C: 40-60%; D: 20-40%; E: <20%.

CRBN/DDB1 = CRBN/DDB1 (Homo sapiens (Human), UniProt Q96SW2); test: IC50 measurements for binding to CRBN/DDB1 (HTRF); conditions: His tagged CRBN+DDB, Cy5-labeled Thalidomide probe, one hour
Method in brief: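 Serially diluted compounds compete with a Cy5-labeled thalidomide tracer (60 nM) for His-tagged CRBN-DDB1 (2 nM), detected via anti-6His Tb cryptate (0.4 nM); buffer HEPES pH 7.5 with TCEP, Brij-35, NaCl, BSA. One-hour room-temperature incubation, HTRF signal read, IC50 by four-parameter curve.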

IKZF1 = IKZF1 (Homo sapiens (Human), UniProt Q13422+Q96SW2); test: In vitro IKZF1 HiBit Assay (HEK293T Flp-in-HiBiT-IKZF1 stable cell line); type: cell-based; conditions: HEK293T Flp-in-HiBiT-IKZF1 stable cell line, 6 hrs incubation; for DC50: read-out: IKZF1 HiBit DC50; for Dmax: HEK-293T, read-out: IKZF1 HiBit Dmax (%)
Method in brief: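 Degradation was measured as loss of luminescence from the HiBiT-IKZF1 tag after 6 h compound treatment, with 0.1% final DMSO, in stable HEK293T Flp-in cells. Values were normalized to DMSO, giving the 50% degradation concentration and the maximal degradation range.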

IKZF2 [2] = biological target: T1, IKZF2; test: In vitro IKZF2 HiBit Assay (HEK293T Flp-in-HiBiT cells); type: cell-based; conditions: HEK293T Flp-in-HiBiT cells, 6 hrs incubation; for DC50: read-out: IKZF2 HiBit DC50; for Dmax: HEK-293T, read-out: IKZF2 HiBit Dmax (%)
Method in brief: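 Remaining tagged Helios was read as lytic HiBiT/LgBiT luminescence normalized to DMSO, yielding binned DC50 and Dmax values. Treatment ran 6 h, with compounds at 11 three-fold doses diluted from 1 mM and 0.1% final DMSO. The cells were HEK293T Flp-in with CRISPR knock-in of HiBiT at the IKZF2 N-terminus.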

T1 sequence (Q9UKS7 whole entry): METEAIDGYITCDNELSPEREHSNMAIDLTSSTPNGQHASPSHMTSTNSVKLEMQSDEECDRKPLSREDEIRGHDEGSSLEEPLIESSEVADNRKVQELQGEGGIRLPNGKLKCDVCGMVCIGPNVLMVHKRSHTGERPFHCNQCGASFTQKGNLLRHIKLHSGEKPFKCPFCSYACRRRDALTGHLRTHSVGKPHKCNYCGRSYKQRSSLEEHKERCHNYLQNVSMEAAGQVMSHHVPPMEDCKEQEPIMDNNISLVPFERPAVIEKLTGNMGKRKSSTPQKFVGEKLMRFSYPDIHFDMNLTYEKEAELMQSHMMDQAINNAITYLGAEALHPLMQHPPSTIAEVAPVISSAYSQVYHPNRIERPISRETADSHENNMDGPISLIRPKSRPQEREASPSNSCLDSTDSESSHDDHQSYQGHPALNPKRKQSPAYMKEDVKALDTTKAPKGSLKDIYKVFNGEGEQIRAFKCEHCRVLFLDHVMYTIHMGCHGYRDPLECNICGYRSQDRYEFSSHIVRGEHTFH
T1 sequence (Q96SW2 whole entry): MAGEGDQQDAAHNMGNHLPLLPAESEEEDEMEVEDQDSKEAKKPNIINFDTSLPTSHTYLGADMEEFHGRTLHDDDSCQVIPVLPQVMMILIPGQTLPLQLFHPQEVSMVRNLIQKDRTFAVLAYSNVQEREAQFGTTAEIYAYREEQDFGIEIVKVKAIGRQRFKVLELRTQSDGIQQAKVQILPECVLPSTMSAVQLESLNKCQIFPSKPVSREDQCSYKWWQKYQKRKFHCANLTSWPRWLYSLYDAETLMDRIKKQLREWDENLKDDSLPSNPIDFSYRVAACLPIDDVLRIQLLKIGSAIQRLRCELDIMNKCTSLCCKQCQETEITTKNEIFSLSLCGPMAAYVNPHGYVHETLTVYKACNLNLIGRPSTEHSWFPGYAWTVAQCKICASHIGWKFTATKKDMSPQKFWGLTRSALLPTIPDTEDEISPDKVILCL
T1 sequence (Q16531 2-1140 partner): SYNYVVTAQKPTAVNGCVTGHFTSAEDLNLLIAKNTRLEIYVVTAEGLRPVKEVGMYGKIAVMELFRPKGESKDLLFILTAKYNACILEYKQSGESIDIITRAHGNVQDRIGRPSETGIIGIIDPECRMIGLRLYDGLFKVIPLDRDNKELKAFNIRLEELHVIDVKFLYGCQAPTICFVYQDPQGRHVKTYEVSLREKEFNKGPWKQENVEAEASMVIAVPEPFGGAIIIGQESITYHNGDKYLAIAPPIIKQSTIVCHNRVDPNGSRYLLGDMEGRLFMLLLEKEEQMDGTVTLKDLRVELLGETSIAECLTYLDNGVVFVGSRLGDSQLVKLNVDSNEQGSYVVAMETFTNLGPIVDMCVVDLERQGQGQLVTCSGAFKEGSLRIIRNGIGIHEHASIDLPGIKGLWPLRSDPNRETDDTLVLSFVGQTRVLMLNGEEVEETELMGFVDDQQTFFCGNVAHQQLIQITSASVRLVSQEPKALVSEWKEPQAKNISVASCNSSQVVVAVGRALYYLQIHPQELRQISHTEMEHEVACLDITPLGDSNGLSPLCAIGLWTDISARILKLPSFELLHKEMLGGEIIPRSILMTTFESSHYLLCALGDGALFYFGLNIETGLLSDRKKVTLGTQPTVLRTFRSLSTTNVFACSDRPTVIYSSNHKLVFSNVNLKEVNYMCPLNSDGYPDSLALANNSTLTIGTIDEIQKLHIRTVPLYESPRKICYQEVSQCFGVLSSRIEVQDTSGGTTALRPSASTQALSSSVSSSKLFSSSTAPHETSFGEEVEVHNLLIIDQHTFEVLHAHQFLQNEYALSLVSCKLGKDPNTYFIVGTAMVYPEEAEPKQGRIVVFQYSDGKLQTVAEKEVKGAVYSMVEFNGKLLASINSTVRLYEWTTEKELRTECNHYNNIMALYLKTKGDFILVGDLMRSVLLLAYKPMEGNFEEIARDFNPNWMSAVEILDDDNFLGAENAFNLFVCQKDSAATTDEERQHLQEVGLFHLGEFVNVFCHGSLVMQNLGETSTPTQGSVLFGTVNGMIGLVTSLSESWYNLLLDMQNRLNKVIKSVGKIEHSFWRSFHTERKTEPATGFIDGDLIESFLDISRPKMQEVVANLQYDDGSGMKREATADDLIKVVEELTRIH
Chain of IKZF1 (Q13422 whole entry): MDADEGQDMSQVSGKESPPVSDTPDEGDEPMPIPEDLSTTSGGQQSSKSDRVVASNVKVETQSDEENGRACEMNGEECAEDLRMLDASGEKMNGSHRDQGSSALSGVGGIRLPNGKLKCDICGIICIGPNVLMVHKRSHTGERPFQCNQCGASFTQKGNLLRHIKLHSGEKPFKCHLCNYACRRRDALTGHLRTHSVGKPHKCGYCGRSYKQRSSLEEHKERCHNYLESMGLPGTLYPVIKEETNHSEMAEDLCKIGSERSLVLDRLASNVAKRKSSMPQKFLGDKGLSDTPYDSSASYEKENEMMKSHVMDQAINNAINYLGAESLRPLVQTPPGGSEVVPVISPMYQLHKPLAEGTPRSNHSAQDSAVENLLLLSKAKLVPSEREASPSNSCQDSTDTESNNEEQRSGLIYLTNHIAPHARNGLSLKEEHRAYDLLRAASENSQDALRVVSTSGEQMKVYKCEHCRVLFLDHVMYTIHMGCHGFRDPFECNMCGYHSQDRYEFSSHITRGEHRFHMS
Chain of IKZF1 (Q96SW2 whole entry): as the sequence (Q96SW2 whole entry) above
Chain of IKZF1 (Q16531 2-1140 partner): as the sequence (Q16531 2-1140 partner) above
Chain of CRBN/DDB1 (Q96SW2 whole entry, species assumed): as the sequence (Q96SW2 whole entry) above
Chain of CRBN/DDB1 (Q16531 whole entry partner, species assumed): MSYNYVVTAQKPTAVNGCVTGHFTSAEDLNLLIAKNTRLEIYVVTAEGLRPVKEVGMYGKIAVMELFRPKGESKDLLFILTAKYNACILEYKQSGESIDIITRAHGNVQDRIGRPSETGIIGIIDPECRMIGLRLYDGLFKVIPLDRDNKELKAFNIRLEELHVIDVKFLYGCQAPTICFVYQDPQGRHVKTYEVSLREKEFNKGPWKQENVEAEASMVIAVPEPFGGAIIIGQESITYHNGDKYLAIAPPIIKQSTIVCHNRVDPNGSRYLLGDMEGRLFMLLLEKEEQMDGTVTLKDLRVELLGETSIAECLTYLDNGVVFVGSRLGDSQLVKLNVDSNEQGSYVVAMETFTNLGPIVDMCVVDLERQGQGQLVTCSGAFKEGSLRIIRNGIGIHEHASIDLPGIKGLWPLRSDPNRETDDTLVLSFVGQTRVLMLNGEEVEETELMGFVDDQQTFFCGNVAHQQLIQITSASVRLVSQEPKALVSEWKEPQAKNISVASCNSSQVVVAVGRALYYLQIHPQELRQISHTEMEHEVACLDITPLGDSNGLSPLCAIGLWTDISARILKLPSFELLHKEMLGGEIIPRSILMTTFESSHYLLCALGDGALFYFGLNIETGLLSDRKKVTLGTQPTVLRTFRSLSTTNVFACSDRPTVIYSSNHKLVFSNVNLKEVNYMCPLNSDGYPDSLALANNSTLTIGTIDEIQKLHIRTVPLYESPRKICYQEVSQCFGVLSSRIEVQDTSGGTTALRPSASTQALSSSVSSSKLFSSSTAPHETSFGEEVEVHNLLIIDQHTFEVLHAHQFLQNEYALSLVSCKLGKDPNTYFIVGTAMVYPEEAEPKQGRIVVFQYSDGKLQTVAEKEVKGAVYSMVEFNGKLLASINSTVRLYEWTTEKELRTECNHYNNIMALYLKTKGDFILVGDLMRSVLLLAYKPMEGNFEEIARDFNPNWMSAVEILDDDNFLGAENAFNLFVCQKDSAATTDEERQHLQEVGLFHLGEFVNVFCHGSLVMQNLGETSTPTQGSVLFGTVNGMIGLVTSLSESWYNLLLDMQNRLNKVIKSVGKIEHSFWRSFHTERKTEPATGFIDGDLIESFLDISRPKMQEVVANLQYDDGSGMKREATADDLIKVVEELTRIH

Row | Structure (SMILES) | DC50 (IKZF2 [1]) | Dmax (IKZF2 [1]) | IC50 (CRBN/DDB1) | DC50 (IKZF1) | Dmax (IKZF1) | DC50 (IKZF2 [2]) | Dmax (IKZF2 [2])
1 | O=C1CCC(N2Cc3cc(-c4cc(CN5CCCC5)c5nccc(OC6CCC6)c5n4)ccc3C2=O)C(=O)N1 (stereo not drawn) [Example 239, 3-(5-(8-cyclobutoxy-4-(pyrrolidin-1-ylmethyl)-1,5-naphthyridin-2-yl)-1-oxoisoindolin-2-yl) piperidine-2,6-dione] | 10 to 100 nM | 60 to 80% | 1000 to 5000 nM | > 10000 nM | < 20% | 1 to 10 nM | 60 to 80%
2 | O=C1CCC(N2Cc3cc(-c4cc(CN5CCC(O)CC5)c5ccn(C6COC6)c5n4)ccc3C2=O)C(=O)N1 (stereo not drawn) [Example 162, 3-(5-(4-((4-hydroxypiperidin-1-yl)methyl)-1-(oxetan-3-yl)-1H-pyrrolo[2,3-b]pyridin-6-yl)-1-oxoisoindolin-2-yl) piperidine-2,6-dione] | 10 to 100 nM | > 80% | 100 to 500 nM | 100 to 1000 nM | 20 to 40% | 10 to 100 nM | 60 to 80%
3 | O=C1CCC(N2Cc3cc(-c4nc5[nH]ccc5c(CN5CCCC5)c4Cl)ccc3C2=O)C(=O)N1 (stereo not drawn) [Example 221, 3-(5-(5-chloro-4-(pyrrolidin-1-ylmethyl)-1H-pyrrolo[2,3-b]pyridin-6-yl)-1-oxoisoindolin-2-yl) piperidine-2,6-dione] | 1 to 10 nM | > 80% | 100 to 500 nM | > 10000 nM | < 20% | 1 to 10 nM | > 80%
4 | CC(C)Nc1n[nH]c2c(CN3CCCC3)cc(-c3ccc4c(c3F)CN(C3CCC(=O)NC3=O)C4=O)nc12 (stereo not drawn) [Example 226, 3-(4-fluoro-5-(3-(isopropylamino)-7-(pyrrolidin-1-ylmethyl)-1H-pyrazolo[4,3-b]pyridin-5-yl)-1-oxoisoindolin-2-yl) piperidine-2,6-dione] | 1 to 10 nM | > 80% | 100 to 500 nM | > 10000 nM | < 20% | < 1 nM | > 80%
5 | CC1CCN(Cc2cc(-c3ccc4c(c3)CN(C3CCC(=O)NC3=O)C4=O)n3cncc3c2)C1 (stereo not drawn) [Example 6, 3-(5-(7-((3-methylpyrrolidin-1-yl)methyl)imidazo[1,5-a]pyridin-5-yl)-1-oxoisoindolin-2-yl) piperidine-2,6-dione] | 10 to 100 nM | 60 to 80% | 100 to 500 nM | > 10000 nM | < 20% | 10 to 100 nM | 60 to 80%
6 | O=C1CCC(N2Cc3cc(-c4cc(CN5CCC6(CC5)CC6)cc5cncn45)ccc3C2=O)C(=O)N1 (stereo not drawn) [Example 8, 3-(5-(7-((6-azaspiro[2.5]octan-6-yl)methyl)imidazo[1,5-a]pyridin-5-yl)-1-oxoisoindolin-2-yl) piperidine-2,6-dione] | 10 to 100 nM | 40 to 60% | 1000 to 5000 nM | > 10000 nM | < 20% | 10 to 100 nM | 40 to 60%
7 | O=C1CCC(N2Cc3cc(-c4cc(CN5CCC(F)CC5)c5ccn(C6COC6)c5n4)ccc3C2=O)C(=O)N1 (stereo not drawn) [Example 187, 3-(5-(4-((4-fluoropiperidin-1-yl)methyl)-1-(oxetan-3-yl)-1H-pyrrolo[2,3-b]pyridin-6-yl)-1-oxoisoindolin-2-yl) piperidine-2,6-dione] | 1 to 10 nM | > 80% | 100 to 500 nM | > 10000 nM | < 20% | 1 to 10 nM | > 80%
8 | Nc1n[nH]c2c(CN3CCC4(CC3)COC4)cc(-c3ccc4c(c3)CN(C3CCC(=O)NC3=O)C4=O)nc12 (stereo not drawn) [Example 216, 3-(5-(7-((2-oxa-7-azaspiro[3.5]nonan-7-yl)methyl)-3-amino-1H-pyrazolo[4,3-b]pyridin-5-yl)-1-oxoisoindolin-2-yl) piperidine-2,6-dione] | 100 to 1000 nM | 60 to 80% | 1000 to 5000 nM | 100 to 1000 nM | 20 to 40% | 10 to 100 nM | 60 to 80%
9 | O=C1CCC(N2Cc3cc(-c4nc(CN5CCCC5)c5ccn(C6COC6)c5n4)ccc3C2=O)C(=O)N1 (stereo not drawn) [Example 218, 3-(5-(7-(oxetan-3-yl)-4-(pyrrolidin-1-ylmethyl)-7H-pyrrolo[2,3-d]pyrimidin-2-yl)-1-oxoisoindolin-2-yl) piperidine-2,6-dione] | 10 to 100 nM | 60 to 80% | 500 to 1000 nM | 100 to 1000 nM | 20 to 40% | 1 to 10 nM | 60 to 80%
10 | O=C1CCC(N2Cc3cc(-c4cc(CN5CCCCC5)cc5cncn45)ccc3C2=O)C(=O)N1 (stereo not drawn) [Example 3, 3-(1-oxo-5-(7-(piperidin-1-ylmethyl)imidazo[1,5-a]pyridin-5-yl)isoindolin-2-yl) piperidine-2,6-dione] | 10 to 100 nM | 40 to 60% | 100 to 500 nM | > 10000 nM | < 20% | 10 to 100 nM | 60 to 80%
11 | O=C1CCC(N2Cc3cc(-c4cc(CN5CC(F)C5)c5ccn(C6COC6)c5n4)ccc3C2=O)C(=O)N1 (stereo not drawn) [Example 161, 3-(5-(4-((3-fluoroazetidin-1-yl)methyl)-1-(oxetan-3-yl)-1H-pyrrolo[2,3-b]pyridin-6-yl)-1-oxoisoindolin-2-yl) piperidine-2,6-dione] | 10 to 100 nM | 60 to 80% | 100 to 500 nM | > 10000 nM | < 20% | 1 to 10 nM | 60 to 80%
12 | CC(C)Nc1ccnc2c(CN3CCCC3)cc(-c3ccc4c(c3)CN(C3CCC(=O)NC3=O)C4=O)nc12 (stereo not drawn) [Example 236, 3-(5-(8-(isopropylamino)-4-(pyrrolidin-1-ylmethyl)-1,5-naphthyridin-2-yl)-1-oxoisoindolin-2-yl) piperidine-2,6-dione] | > 1000 nM | < 20% | 1000 to 5000 nM | > 10000 nM | < 20% | 10 to 100 nM | 20 to 40%
13 | O=C1CCC(N2Cc3cc(-c4cc(CN5CCCC5)cc5cncn45)ccc3C2=O)C(=O)N1 (stereo not drawn) [Example 1, 3-(1-oxo-5-(7-(pyrrolidin-1-ylmethyl)imidazo[1,5-a]pyridin-5-yl)isoindolin-2-yl) piperidine-2,6-dione] | 10 to 100 nM | 60 to 80% | 100 to 500 nM | > 10000 nM | < 20% | 10 to 100 nM | 60 to 80%
14 | Cn1ccc2c(CN3CCC3)cc(-c3ccc4c(c3)CN(C3CCC(=O)NC3=O)C4=O)nc21 (stereo not drawn) [Example 56, 3-(5-(4-(azetidin-1-ylmethyl)-1-methyl-1H-pyrrolo[2,3-b]pyridin-6-yl)-1-oxoisoindolin-2-yl) piperidine-2,6-dione] | 1 to 10 nM | 60 to 80% | < 100 nM | > 10000 nM | 20 to 40% | < 1 nM | > 80%
15 | O=C1CCC(N2Cc3cc(-c4cc(CN5CC6COCC(C6)C5)c5cc[nH]c5n4)ccc3C2=O)C(=O)N1 (stereo not drawn) [Example 121, 3-(5-(4-((3-oxa-7-azabicyclo[3.3.1]nonan-7-yl)methyl)-1H-pyrrolo[2,3-b]pyridin-6-yl)-1-oxoisoindolin-2-yl) piperidine-2,6-dio] | 10 to 100 nM | > 80% | 1000 to 5000 nM | > 10000 nM | < 20% | 1 to 10 nM | > 80%
16 | O=C1CCC(N2Cc3cc(-c4ccc(CN5CCCC5)c5cncn45)ccc3C2=O)C(=O)N1 (stereo not drawn) [Example 54, 3-(1-oxo-5-(8-(pyrrolidin-1-ylmethyl)imidazo[1,5-a]pyridin-5-yl)isoindolin-2-yl) piperidine-2,6-dione] | < 1 nM | > 80% | 1000 to 5000 nM | > 10000 nM | < 20% | 1000 to 10000 nM | < 20%
17 | CC(C)Nc1n[nH]c2c(CN3CCCC3)cc(-c3ccc4c(c3)CN(C3CCC(=O)NC3=O)C4=O)nc12 (stereo not drawn) [Example 193, 3-(5-(3-(isopropylamino)-7-(pyrrolidin-1-ylmethyl)-1H-pyrazolo[4,3-b]pyridin-5-yl)-1-oxoisoindolin-2-yl) piperidine-2,6-dione] | 1 to 10 nM | 40 to 60% | 1000 to 5000 nM | 10 to 100 nM | 20 to 40% | 1 to 10 nM | > 80%
18 | O=C1CCC(N2Cc3cc(-c4cc(CN5CCCC5)c5ccn(C6CCOC6)c5n4)ccc3C2=O)C(=O)N1 (stereo not drawn) [Example 170, 3-(1-oxo-5-(4-(pyrrolidin-1-ylmethyl)-1-(tetrahydrofuran-3-yl)-1H-pyrrolo[2,3-b]pyridin-6-yl)isoindolin-2-yl) piperidine-2,6-dione] | 10 to 100 nM | 60 to 80% | 500 to 1000 nM | > 10000 nM | < 20% | 1 to 10 nM | 60 to 80%
